Experimental data published in patent publication US20160158200A1, “Combinations of Hepatitis C Virus Inhibitors” (priority 2013, published 2016).

Legend:
[1] = system: HCV genotype 1a L31V variant with leucine 31 changed to valine in the NS5A protein; assay: microbe, parasite or virus in culture; assay type: cell-based; details: genotype 1a L31V replicon; test compound titrated with compound N47 fixed at 200 nM versus singly
[2] = system: HCV genotype 1a Y93H variant with tyrosine 93 changed to histidine in the NS5A protein; assay: microbe, parasite or virus in culture; assay type: cell-based; details: genotype 1a Y93H replicon; test compound titrated with compound N47 fixed at 200 nM versus singly
Procedure, shortened: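 In an HCV genotype 1a replicon cell-based assay carrying the NS5A Y93H substitution, BMS-790052 was tested alone and in combination with a fixed amount of a second test compound. The combinations were examined for synergistic activity.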

SMILES | Fold-Synergistic G-1a (L31V) [1] [fold] | Fold-Synergistic G-1a (Y93H) [2] [fold]
COC(=O)N[C@H](C(=O)N1[C@H]2C[C@@]2(C)C[C@H]1c1ncc(-c2ccc(-c3ccc(-c4cnc([C@@H]5C[C@]6(C)C[C@@H]6N5C(=O)[C@@H](NC(=O)OC)C(C)C)[nH]4)cc3)cc2)[nH]1)C(C)C | >100 | >100
O=C(Cc1ccccc1)N1CCC[C@H]1c1nc2cc(C#Cc3ccc4nc([C@@H]5CCCN5C(=O)Cc5ccccc5)[nH]c4c3)ccc2[nH]1 | <10 | <10
COC(=O)N[C@H](C(=O)N1CCC[C@H]1c1nc(C2=CCC(C3CC=C(c4c[nH]c([C@@H]5CCCN5C(=O)[C@@H](NC(=O)OC)C(C)C)n4)CC3)CC2)c[nH]1)C(C)C (stereo partly shown) | >100 | >100
COC(=O)N[C@H](C(=O)N1CCC[C@H]1c1ncc(-c2ccc(-c3ncc(-c4cnc([C@@H]5CCCN5C(=O)[C@@H](NC(=O)OC)C(C)C)[nH]4)cn3)cc2)[nH]1)C(C)C | >100 | >100
COC(=O)N[C@H](C(=O)N1[C@@H](C)CC[C@H]1c1ncc(-c2ccc3c(c2)CCc2cc(-c4cnc([C@@H]5CC[C@H](C)N5C(=O)[C@@H](NC(=O)OC)C(C)C)[nH]4)ccc2-3)[nH]1)C(C)C | >100 | >100
COC(=O)N[C@H](C(=O)N1CCC[C@H]1c1nc(-c2ccc(C#Cc3ccc(-c4ccc(-c5c[nH]c([C@@H]6CCCN6C(=O)[C@@H](NC(=O)OC)C(C)C)n5)cc4)cc3)cc2)c[nH]1)C(C)C | <10 | <10
CCN(CC)[C@@H](C(=O)N1CCC[C@H]1c1nc2c([nH]1)CCCc1cc(-c3ccc4nc([C@@H]5CCCN5C(=O)[C@@H](c5ccccc5)N(CC)CC)[nH]c4c3)ccc1-2)c1ccccc1 | <10 | <10
COC(=O)N[C@@H](C(=O)N1CCC[C@H]1c1ncc(-c2nc3cc4sc(-c5cnc([C@@H]6CCCN6C(=O)[C@H](NC(=O)OC)c6ccccc6)[nH]5)nc4cc3s2)[nH]1)c1ccccc1 | <10 | >100
COC(=O)N[C@H](C(=O)N1[C@@H]2CC[C@@H]2C[C@H]1c1nc(-c2ccc(-c3ccc(-c4cnc([C@@H]5C[C@H]6CC[C@H]6N5C(=O)[C@@H](NC(=O)OC)C(C)C)[nH]4)cc3)cc2)c[nH]1)C(C)C | >100 | >100
COc1ccc(-c2ccc(-c3cnc([C@@H]4CCCN4C(=O)[C@@H](c4ccccc4)N(C)C)[nH]3)cc2)cc1-c1cnc([C@@H]2CCCN2C(=O)[C@@H](c2ccccc2)N(C)C)[nH]1 | <10 | <10
O=C(Cc1ccccc1)N1CCC[C@H]1c1nc2ccc(-c3cnc([C@@H]4CCCN4C(=O)Cc4ccccc4)o3)cc2[nH]1 | <10 | <10
COC(=O)N[C@H](C(=O)N1CCC[C@H]1c1nc2ccc(Oc3ccc(-c4ccc5nc([C@@H]6CCCN6C(=O)[C@@H](NC(=O)OC)C(C)C)[nH]c5c4)cc3)cc2[nH]1)C(C)C | <10 | <10
CCC1(c2ccc(NC(=O)[C@@H]3C[C@H]4C[C@H]4N3C(=O)[C@@H](NC(=O)OC)C(C)C)cc2)CC2C3CC4CC(c5ccc(NC(=O)[C@@H]6C[C@H]7C[C@H]7N6C(=O)[C@@H](NC(=O)OC)C(C)C)cc5)(C3)CC2C4C1 (stereo partly shown) | <10 | <10
O=C(Nc1ccc(/C=C/c2ccc(NC(=O)[C@@H]3CCCN3C(=O)Cc3ccccc3)cc2)cc1)[C@@H]1CCCN1C(=O)Cc1ccccc1 | <10 | <10
COC(=O)N[C@@H](C(=O)N1CCC[C@H]1c1ncc(-c2ccc(-c3ncc(-c4cnc([C@@H]5CCCN5C(=O)[C@H](NC(=O)OC)c5ccccc5)[nH]4)cn3)cc2)[nH]1)c1ccccc1 | <10 | <10
COC(=O)N[C@H](C(=O)N1C2CC2CC[C@H]1c1ncc(-c2ccc(-c3ccc(-c4cnc([C@@H]5CCC6CC6N5C(=O)[C@@H](NC(=O)OC)C(C)C)[nH]4)cc3)cc2)[nH]1)C(C)C (stereo partly shown) [drawing 2298] | >100 | >100

SMILES | Fold-Synergistic G-1a (L31V) [1] [fold] | Fold-Synergistic G-1a (Y93H) [2] [fold]
COC(=O)N[C@H](C(=O)N1CCC[C@H]1c1nc2ccc3cc(-c4ccc5c(ccc6nc([C@@H]7CCCN7C(=O)[C@@H](NC(=O)OC)C(C)C)[nH]c65)c4)ccc3c2[nH]1)C(C)C | >100 | >100
COC(=O)N[C@H](C(=O)N1[C@@H]2C[C@@H]2C[C@H]1c1ncc(-c2ccc(-c3ccc(-c4cnc([C@@H]5C[C@H]6C[C@H]6N5C(=O)[C@@H](NC(=O)OC)C(C)C)[nH]4)cc3)cc2)[nH]1)C(C)C | >100 | >100
O=C(OCc1ccccc1)N1C[C@H](O)C[C@H]1c1nc2cc(C#Cc3ccc4[nH]c([C@@H]5C[C@@H](O)CN5C(=O)OCc5ccccc5)nc4c3)ccc2[nH]1 | <10 | <10
COC(=O)N[C@H](C(=O)N1CC[C@H](C)[C@H]1c1ncc(-c2ccc(-c3ccc(-c4cnc([C@@H]5[C@@H](C)CCN5C(=O)[C@@H](NC(=O)OC)C(C)C)[nH]4)cc3)cc2)[nH]1)C(C)C | >100 | >100
COC(=O)N[C@H](C(=O)N1CCCC1c1nc2cc(-c3ccc4cc(-c5ccc(-c6cnc([C@@H]7CCCN7C(=O)[C@@H](NC(=O)OC)C(C)C)[nH]6)cc5)ccc4c3)ccc2[nH]1)C(C)C (stereo partly shown) | >10 | >10
COC(=O)N[C@H](C(=O)N1[C@@H](C)CC[C@H]1c1ncc(-c2ccc3c(c2)Cc2cc(-c4cnc([C@@H]5CC[C@H](C)N5C(=O)[C@@H](NC(=O)OC)C(C)C)[nH]4)ccc2-3)[nH]1)C(C)C | >100 | >100
COC(=O)N[C@H](C(=O)N1[C@@H]2C[C@@H]2C[C@H]1c1ncc(-c2ccc(C#Cc3ccc(-c4cnc([C@@H]5C[C@H]6C[C@H]6N5C(=O)[C@@H](NC(=O)OC)C(C)C)[nH]4)cc3)cc2)[nH]1)C(C)C | <10 | >10
COC(=O)N[C@H](C(=O)N1CCC[C@H]1c1ncc(C#Cc2ccc3cc(C#Cc4cnc([C@@H]5CCCN5C(=O)[C@@H](NC(=O)OC)C(C)C)[nH]4)ccc3c2)[nH]1)C(C)C | >10 | <10
COC(=O)N[C@H](C(=O)N1CCn2c(-c3ccc(-c4ccc(-c5cnc6n5CCN(C(=O)[C@@H](NC(=O)OC)C(C)C)C6)cc4)cc3)cnc2C1)C(C)C | <10 | <10
CC(=O)N1CCC[C@H]1C(=O)Nc1ccc(-c2nc(-c3ccc(NC(=O)[C@@H]4C=CCN4C(=O)Cc4ccccc4)cc3)cs2)cc1 | <10 | <10
COC(=O)N[C@H](C(=O)N1[C@@H]2C[C@@H]2C[C@H]1c1ncc(-c2ccc(-c3ccc(-c4ccc(-c5cnc([C@@H]6C[C@H]7C[C@H]7N6C(=O)[C@@H](NC(=O)OC)C(C)C)[nH]5)cc4)c4[nH]ccc34)cc2)[nH]1)C(C)C | >10 | >10
COC(=O)N[C@H](C(=O)N1CCC[C@H]1c1nc2cc(-c3ccc4cc(-c5cnc6[nH]c([C@@H]7CCCN7C(=O)[C@@H](NC(=O)OC)C(C)C)nc6c5)ccc4c3)cnc2[nH]1)C(C)C | >10 | >10
COC(=O)N[C@H](C(=O)N1CCOC[C@H]1c1ncc(-c2ccc(-c3ccc(-c4cnc([C@@H]5COCCN5C(=O)[C@@H](NC(=O)OC)C(C)C)[nH]4)cc3)cc2)[nH]1)C(C)C | >100 | >100
COC(=O)N[C@@H](C(=O)N1CCC[C@H]1c1nc2ccc(C(=O)c3ccc4nc([C@@H]5CCCN5C(=O)[C@H](NC(=O)OC)c5ccccc5)[nH]c4c3)cc2[nH]1)c1ccccc1 | <10 | <10
COC(=O)N[C@H](C(=O)N1CCC[C@H]1c1nc(-c2cccc(-c3ccc4nc([C@@H]5CCCN5C(=O)[C@@H](NC(=O)OC)C(C)C)[nH]c4c3)c2)c[nH]1)C(C)C | <10 | <10
COC(=O)N[C@H](C(=O)N1CCC[C@H]1c1nc2ccc(-c3ccc4nc(-c5ccc6nc([C@@H]7CCCN7C(=O)[C@@H](NC(=O)OC)C(C)C)[nH]c6c5)ccc4c3)cc2[nH]1)C(C)C | >10 | >10
